Assay [1] has as its system Mtb mc^28250 pMV261. The assay can be described thus: microbe, parasite or virus in culture. In kind it is cell-based.
For assay [2], the system named is Mtb mc^28247 pMV261. The assay can be described thus: microbe, parasite or virus in culture. It counts as cell-based.
Assay [3] deals with Mtb mc^28256 pMV261. The experiment in a line: microbe, parasite or virus in culture. In kind it is cell-based. The settings on record: Mycobacterium tuberculosis, read-out: Mtb MIC95.
In assay [4] the test system is Mtb mc^28245 pMV261. The experiment in a line: microbe, parasite or virus in culture. It counts as cell-based.
Assay [5] deals with Mtb mc^27092 pMV261-hadABC. The experiment in a line: microbe, parasite or virus in culture. The settings on record: Mycobacterium tuberculosis, read-out: Mtb MIC95. It counts as cell-based.
In assay [6] the test system is Mtb mc^27092 pMV261-desA3. The assay can be described thus: microbe, parasite or virus in culture. It counts as cell-based. The settings on record: Mycobacterium tuberculosis, read-out: Mtb MIC95.
Assay [7] has as its system Mtb mc^27092 pMV261-pks13. The experiment in a line: microbe, parasite or virus in culture. It counts as cell-based. The settings on record: Mycobacterium tuberculosis, read-out: Mtb MIC95.
Assay [8] deals with Mtb mc^27092 pMV261- ethA. The assay can be described thus: microbe, parasite or virus in culture. It counts as cell-based. The settings on record: Mycobacterium tuberculosis, read-out: Mtb MIC95.
The subject of assay [9] is Mtb mc^27092 pMV261-mmpL3. The experiment in a line: microbe, parasite or virus in culture. It counts as cell-based, Mycobacterium tuberculosis. The settings on record: for MIC: Mycobacterium tuberculosis, read-out: Mtb MIC95.
Assay [10] concerns M. smegmatis mc^2155 mmpL3 knockout strain expressing MmpL3-Mtb-G253E. On the set-up: method as in PMID 22344175. The settings on record: M. smegmatis mc^2155, MmpL3-Mtb-G253E in a mmpL3 knockout strain; cited from earlier work.
[11] abbreviates: Mycobacterium tuberculosis; read-out: Mtb MIC95.
The mark [12] stands for this setting: Mycobacterium tuberculosis, read-out: Mtb MIC95.

SMILES strings stand for the structures. ≈ marks a conversion by molar mass, not a printed value. Where two headings read alike, the source gives them in different places.

Take `CC(C)CCOc1ccc(NC(=S)Nc2ccc(OCCC(C)C)cc2)cc1` [ISO, 4,4′-diisoamyloxydiphenylthiourea]: the MIC in assay [1] (setting [11]) amounted to 0.2 µg/mL (≈ 0.499 µM); in [2] (setting [11]) it was 0.34 µg/mL (≈ 0.849 µM); in [3] (mc^28256 pMV261, REMA) it was 0.19 µg/mL (≈ 0.474 µM); in assay [4] (setting [11]), 0.18 µg/mL (≈ 0.449 µM); in assay [5] (mc^27092 pMV261-hadABC, REMA), 0.71 µg/mL (≈ 1.77 µM); in [6] (mc^27092 pMV261-desA3, REMA), 0.26 µg/mL (≈ 0.649 µM). Moreover, the MIC in assay [7] (mc^27092 pMV261-pks13, REMA) is 0.34 µg/mL (≈ 0.849 µM); in assay [8] (mc^27092 pMV261- ethA, REMA) it was 0.09 µg/mL (≈ 0.225 µM); in [9] (mc^27092 pMV261-mmpL3, REMA) it was 0.21 µg/mL (≈ 0.524 µM).

Take `CC(C)CCOc1ccc(NC(=S)NC2C3CC4CC(C3)CC2C4)cc1` (stereo not shown) [Ad-2-ISO, 1-((1r,3r,5r,7r)-adamantan-2-yl)-3–(4-(isopentyloxy)phenyl)thiourea]: the MIC in [1] (setting [11]) was determined as 3.1 µg/mL (≈ 8.32 µM); in assay [2] (setting [11]), 2.5 µg/mL (≈ 6.71 µM); in assay [3] (mc^28256 pMV261, REMA), 2.9 µg/mL (≈ 7.78 µM); in assay [4] (setting [11]), 3.55 µg/mL (≈ 9.53 µM); in assay [5] (mc^27092 pMV261-hadABC, REMA) it was 4.34 µg/mL (≈ 11.6 µM); in [6] (mc^27092 pMV261-desA3, REMA) it was 2.93 µg/mL (≈ 7.86 µM). Further, the MIC was 3.37 µg/mL (≈ 9.05 µM) in assay [7] (mc^27092 pMV261-pks13, REMA); 2.63 µg/mL (≈ 7.06 µM) in [8] (mc^27092 pMV261- ethA, REMA); 4.2 µg/mL (≈ 11.3 µM) in assay [9] (mc^27092 pMV261-mmpL3, REMA). Also, the “increase in resistance on overexpression of MmpL3” value in assay [9] was roughly 2 fold.

On to `CC[C@@H](CO)NCCN[C@@H](CC)CO` [EMB, Ethambutol], for which the MIC was 1.89 µg/mL (≈ 9.25 µM) in [1] (setting [11]); 1.97 µg/mL (≈ 9.64 µM) in assay [2] (setting [11]); 1.88 µg/mL (≈ 9.2 µM) in assay [3] (mc^28256 pMV261, REMA); 1.82 µg/mL (≈ 8.91 µM) in [4] (setting [11]); 2.54 µg/mL (≈ 12.4 µM) in assay [5] (mc^27092 pMV261-hadABC, REMA); 2.95 µg/mL (≈ 14.4 µM) in [6] (mc^27092 pMV261-desA3, REMA). For the same molecule, the MIC worked out at 2 µg/mL (≈ 9.79 µM) in assay [7] (mc^27092 pMV261-pks13, REMA); 2.09 µg/mL (≈ 10.2 µM) in assay [8] (mc^27092 pMV261- ethA, REMA); 2.02 µg/mL (≈ 9.89 µM) in [9] (mc^27092 pMV261-mmpL3, REMA).

On to `CC(C)CCOc1ccc(NC(=S)NC23CC4CC(CC(C4)C2)C3)cc1` [Ad-1-ISO, 1-((3s,5s,7s)-adamantan-1-yl)-3–(4-(isopentyloxy)phenyl)thiourea], for which the MIC in assay [1] (setting [11]) turned out to be 1.12 µg/mL (≈ 3.01 µM); in assay [2] (setting [11]), 1.08 µg/mL (≈ 2.9 µM); in assay [3] (mc^28256 pMV261, REMA), 1.13 µg/mL (≈ 3.03 µM); in assay [4] (setting [11]) it was 1.11 µg/mL (≈ 2.98 µM); in assay [5] (mc^27092 pMV261-hadABC, REMA), 1.09 µg/mL (≈ 2.93 µM); in [6] (mc^27092 pMV261-desA3, REMA), 1.07 µg/mL (≈ 2.87 µM). Further, the MIC in assay [7] (mc^27092 pMV261-pks13, REMA) is 1.11 µg/mL (≈ 2.98 µM); in assay [8] (mc^27092 pMV261- ethA, REMA), 1.2 µg/mL (≈ 3.22 µM); in [9] (mc^27092 pMV261-mmpL3, REMA) it was 1.16 µg/mL (≈ 3.11 µM).

Turning to `CC(=O)NC[C@H]1CN(c2ccc(N3CCOCC3)c(F)c2)C(=O)O1` [LZD, linezolid], the MIC was determined as 0.77 µg/mL (≈ 2.28 µM) in [1] (setting [11]); 0.88 µg/mL (≈ 2.61 µM) in assay [2] (setting [11]); 0.66 µg/mL (≈ 1.96 µM) in assay [3] (mc^28256 pMV261, REMA); 0.9 µg/mL (≈ 2.67 µM) in assay [4] (setting [11]); 0.72 µg/mL (≈ 2.13 µM) in assay [5] (mc^27092 pMV261-hadABC, REMA); 0.93 µg/mL (≈ 2.76 µM) in assay [7] (mc^27092 pMV261-pks13, REMA). Further, the MIC in assay [9] (mc^27092 pMV261-mmpL3, REMA) turned out to be 0.86 µg/mL (≈ 2.55 µM).

As for `O=C(Nc1ccc(F)c(F)c1F)NC1C2CC3CC(C2)CC1C3` (stereo not shown) [AU1235], the “increase in the resistance” value in assay [10] was 2 fold.

With `CCc1cc(C(N)=S)ccn1` [ETH, ethionamide], the MIC in assay [1] (setting [12]) worked out at 1.02 µg/mL (≈ 6.14 µM); in assay [2] (setting [12]), 0.98 µg/mL (≈ 5.89 µM); in [3], 1.08 µg/mL (≈ 6.5 µM); in [4] (setting [12]), 0.98 µg/mL (≈ 5.89 µM); in assay [5] it was 2.02 µg/mL (≈ 12.2 µM); in [6], 1.02 µg/mL (≈ 6.14 µM). In addition, the MIC in assay [7] was determined as 1.01 µg/mL (≈ 6.08 µM); in [8] it was 0.65 µg/mL (≈ 3.91 µM); in [9], 0.99 µg/mL (≈ 5.95 µM).

For the molecule `CO[C@H]1/C=C/O[C@@]2(C)Oc3c(C)c(O)c4c(O)c(c(/C=N/N5CCN(C)CC5)c(O)c4c3C2=O)NC(=O)/C(C)=C\C=C\[C@H](C)[C@H](O)[C@@H](C)[C@@H](O)[C@@H](C)[C@H](OC(C)=O)[C@@H]1C` [RIF, rifampicin], the MIC in [4] (setting [11]) amounted to 0.05 µg/mL (≈ 0.0608 µM); in assay [5] (mc^27092 pMV261-hadABC, REMA), 0.06 µg/mL (≈ 0.0729 µM); in assay [6] (mc^27092 pMV261-desA3, REMA), 0.06 µg/mL (≈ 0.0729 µM); in [7] (mc^27092 pMV261-pks13, REMA), 0.06 µg/mL (≈ 0.0729 µM); in assay [8] (mc^27092 pMV261- ethA, REMA), 0.06 µg/mL (≈ 0.0729 µM); in [9] (mc^27092 pMV261-mmpL3, REMA), 0.06 µg/mL (≈ 0.0729 µM).

Turning to `CC(C)=CCC/C(C)=C/CNCCNC1C2CC3CC(C2)CC1C3` (stereo not shown) [SQ109, N-Adamantan-2-yl-N’-((E)-3,7-dimethylocta-2,6-dienyl)ethane-1,2-diamine], the MIC in [1] (setting [11]) worked out at 0.3 µg/mL (≈ 0.908 µM); in assay [2] (setting [11]), 0.3 µg/mL (≈ 0.908 µM); in assay [3] (mc^28256 pMV261, REMA), 0.27 µg/mL (≈ 0.817 µM); in assay [4] (setting [11]), 0.31 µg/mL (≈ 0.938 µM); in assay [5] (mc^27092 pMV261-hadABC, REMA), 0.31 µg/mL (≈ 0.938 µM); in assay [7] (mc^27092 pMV261-pks13, REMA) it was 0.31 µg/mL (≈ 0.938 µM). Further, the MIC in [9] (mc^27092 pMV261-mmpL3, REMA) is 0.74 µg/mL (≈ 2.24 µM).

As to `NNC(=O)c1ccncc1` [INH, isoniazid], the MIC in assay [2] (setting [11]) was determined as 0.04 µg/mL (≈ 0.292 µM); in assay [5] (mc^27092 pMV261-hadABC, REMA), 0.04 µg/mL (≈ 0.292 µM); in assay [6] (mc^27092 pMV261-desA3, REMA) it was 0.04 µg/mL (≈ 0.292 µM); in assay [7] (mc^27092 pMV261-pks13, REMA) it was 0.04 µg/mL (≈ 0.292 µM); in assay [8] (mc^27092 pMV261- ethA, REMA), 0.04 µg/mL (≈ 0.292 µM); in assay [9] (mc^27092 pMV261-mmpL3, REMA), 0.04 µg/mL (≈ 0.292 µM).

Source of the values: paper PMC12096669, “Structural isomerisation affects the antitubercular activity of adamantyl-isoxyl adducts” (Journal of Enzyme Inhibition and Medicinal Chemistry, 2025).
